Laboratory results reported in PMC10018608 (Signal Transduction and Targeted Therapy, 2023).
Read-outs that look alike come from different tables or passages of the source.

Legend:
in vitro [1] = format: in vitro ADME; details: human, microsomes, HLM 0.5 mg/mL, 1 μM; for remaining at 0 h: 0 min, read-out: Percent Remaining (%) 0 min; for remaining at 0 h / remaining at 5 min / remaining at […] / remaining at 0.5 h / remaining at 0.75 h / remaining at 1 h: Mean; for remaining at 5 min: read-out: Percent Remaining (%) 5 min; for remaining at […]: 15 min, read-out: Percent Remaining (%) 15 min; for remaining at 0.5 h: 30 min, read-out: Percent Remaining (%) 30 min; for remaining at 0.75 h: 45 min, read-out: Percent Remaining (%) 45 min; for remaining at 1 h: 60 min, read-out: Percent Remaining (%) 60 min; for CLint scaled: scaling factor 1254.2
in vivo = details: male, Sprague-Dawley, rat
in vitro [2] = format: cell-based
Protocol: Cells were seeded and grown in 96 well plates overnight. Then various concentrations of compounds in fresh medium were added and incubated for 72 h. Using MTT (Sigma) assay to determine the cell viability.

[3] = SD rats
SARS-CoV-1 = assay: microbe, parasite or virus in culture; format: cell-based; details: Severe acute respiratory syndrome coronavirus, VeroE6/TMPRSS2, read-out: EC50 (plaque reduction)
SARS-CoV-2 (BA.5) = assay: microbe, parasite or virus in culture; format: cell-based; details: Severe acute respiratory syndrome coronavirus 2, VeroE6-TMPRSS2, read-out: EC50 (plaque reduction)
SARS-CoV-2 (BA.2) = assay: Plaque reduction assay in VeroE6-TMPRSS2; format: cell-based; details: Severe acute respiratory syndrome coronavirus 2
SARS-CoV-2 (B.1.1.7) = assay: Plaque reduction assay in VeroE6-TMPRSS2; format: cell-based; details: Severe acute respiratory syndrome coronavirus 2
SARS-CoV-2 (B.1.351) = assay: Plaque reduction assay in VeroE6-TMPRSS2; format: cell-based; details: Severe acute respiratory syndrome coronavirus 2
MERS-CoV = assay: microbe, parasite or virus in culture; format: cell-based; details: Middle East respiratory syndrome-related coronavirus, VeroE6/TMPRSS2, read-out: EC50 (plaque reduction)
in vitro [4] = format: in vitro ADME, human; details: human, plasma
[5] = African green monkey, VeroE6, MTT, 72 h

| Structure (SMILES) | half-life (in vitro [1]) [h] | remaining at 0 h (in vitro [1]) [%] | remaining at 5 min (in vitro [1]) [%] | remaining at […] (in vitro [1]) [%] | remaining at 0.5 h (in vitro [1]) [%] | remaining at 0.75 h (in vitro [1]) [%] | remaining at 1 h (in vitro [1]) [%] | CLint scaled (in vitro [1]) [mL/min/kg] | AUC(0-inf) (in vivo; iv, 1 mg/kg) [ng·h/mL] | AUC(0-t) (in vivo; iv, 1 mg/kg) [ng·h/mL] | Cmax (in vivo; iv, 1 mg/kg) [ng/mL] | Tmax (in vivo; iv, 1 mg/kg) [h] | clearance (in vivo; iv, 1 mg/kg) [mL/min/kg] | half-life (in vivo; iv, 1 mg/kg) [h] | AUC(0-inf) (in vivo; po, 10 mg/kg) [ng·h/mL] | AUC(0-t) (in vivo; po, 10 mg/kg) [ng·h/mL] | Cmax (in vivo; po, 10 mg/kg) [ng/mL] | Tmax (in vivo; po, 10 mg/kg) [h] | bioavailability (in vivo; po, 10 mg/kg) [%] | half-life (in vivo; po, 10 mg/kg) [h] | further results |
| --- | --- | --- | --- | --- | --- | --- | --- | --- | --- | --- | --- | --- | --- | --- | --- | --- | --- | --- | --- | --- | --- |
| O=C(CC1CC(F)(F)C1)NCC(=O)N[C@H](Cc1ccccc1)C(=O)C(=O)NCc1nccs1 [3q] | 0.426 | 100 | 86 | 63.1 | 40.1 | 30.3 | 19.1 | 68.1 | – | – | – | – | – | – | – | – | – | – | – | – | – |
| C[C@@H](NC(=O)C1CCC(F)(F)CC1)C(=O)N[C@H](Cc1ccccc1)C(=O)C(=O)NCc1nccs1 [3r] | 0.594 | 100 | 91.5 | 73.2 | 51 | 39.1 | 32.5 | 48.8 | 1020 ± 262 | 1010 ± 258 | 1110 ± 70 | 0.08 | 17 ± 3.8 | 2.41 ± 2.24 | 2840 ± 327 | 2570 ± 679 | 306 ± 32.1 | 2.67 ± 1.15 | 25.4 ± 6.71 | 3.01 ± 0.91 | CC50 (in vitro [2]; [5]): > 500 µM; CC50 (in vitro [2]; human, BEAS-2B, MTT, 72 h): > 500 µM; CC50 (in vitro [2]; human, HUVEC, MTT, 72 h): > 500 µM; MTRlast ([3]; i.v. (1 mg/kg)): 1.31 ± 0.54 h; Vzobs ([3]; i.v. (1 mg/kg)): 3.05 ± 2.08 L/kg; MTRlast ([3]; p.o. (10 mg/kg)): 4.89 ± 1.14 h |
| C[C@@H](NC(=O)C1CCCC(F)(F)C1)C(=O)N[C@H](Cc1ccccc1)C(=O)C(=O)NCc1nccs1 (some centres unmarked) [3s] | 0.424 | 100 | 81.7 | 64.2 | 42 | 28.4 | 18.9 | 68.4 | – | – | – | – | – | – | – | – | – | – | – | – | – |
| C[C@@H](NC(=O)C1CCC(F)(F)C1)C(=O)N[C@H](Cc1ccccc1)C(=O)C(=O)NCc1nccs1 (some centres unmarked) [3t] | 0.704 | 100 | 89.1 | 73.5 | 56.2 | 46.2 | 37 | 41.2 | 1330 ± 556 | 1290 ± 531 | 1320 ± 168 | 0.08 | 14.5 ± 7.25 | 1.9 ± 0.27 | 6900 ± 2620 | 6720 ± 2460 | 635 ± 161 | 1.67 ± 0.58 | 52 ± 19.1 | 4.15 ± 1.48 | CC50 (in vitro [2]; [5]): > 500 µM; CC50 (in vitro [2]; human, BEAS-2B, MTT, 72 h): > 500 µM; CC50 (in vitro [2]; human, HUVEC, MTT, 72 h): > 500 µM; MTRlast ([3]; i.v. (1 mg/kg)): 1.26 ± 0.42 h; Vzobs ([3]; i.v. (1 mg/kg)): 2.49 ± 1.61 L/kg; MTRlast ([3]; p.o. (10 mg/kg)): 5.90 ± 0.79 h |
| C[C@@H](NC(=O)CC1CC(F)(F)C1)C(=O)N[C@H](Cc1ccccc1)C(=O)C(=O)NCc1nccs1 [3u] | – | – | – | – | – | – | – | – | 2250 ± 672 | 2200 ± 634 | 1570 ± 201 | 0.08 | 7.95 ± 2.8 | 5.47 ± 0.77 | 8700 ± 1120 | 8180 ± 795 | 735 ± 102 | 1.33 ± 0.58 | 37.2 ± 3.62 | 5.84 ± 1.3 | CC50 (in vitro [2]; [5]): > 500 µM; CC50 (in vitro [2]; human, BEAS-2B, MTT, 72 h): > 500 µM; CC50 (in vitro [2]; human, HUVEC, MTT, 72 h): > 500 µM; MTRlast ([3]; i.v. (1 mg/kg)): 3.19 ± 0.31 h; Vzobs ([3]; i.v. (1 mg/kg)): 3.65 ± 0.74 L/kg; MTRlast ([3]; p.o. (10 mg/kg)): 6.57 ± 0.38 h |
| COC[C@@H](NC(=O)C1CCC(F)(F)CC1)C(=O)N[C@H](Cc1ccccc1)C(=O)C(=O)NCc1nccs1 [3v] | 0.65 | 100 | 88.3 | 73.2 | 54.5 | 42.3 | 34.7 | 44.6 | 2830 ± 959 | 2570 ± 820 | 1700 ± 237 | 0.08 | 6.48 ± 2.63 | 9.49 ± 2.16 | 14000 ± 783 | 12700 ± 1270 | 1010 ± 115 | 4 | 49.2 ± 4.92 | 6.64 ± 1.17 | CC50 (in vitro [2]; [5]): 132 ± 19.8 µM; CC50 (in vitro [2]; human (BEAS-2B, African green monkey (VeroE6)), across BEAS-2B, VeroE6, and HUVEC cells, MTT): 129 to 159 µM; CC50 (in vitro [2]; human, BEAS-2B, MTT, 72 h): 159 ± 4.34 µM; CC50 (in vitro [2]; human, HUVEC, MTT, 72 h): 129 ± 13.4 µM; MTRlast ([3]; i.v. (1 mg/kg)): 3.55 ± 0.52 h; Vzobs ([3]; i.v. (1 mg/kg)): 5.25 ± 2.13 L/kg; MTRlast ([3]; p.o. (10 mg/kg)): 7.63 ± 0.57 h |
| COC[C@@H](NC(=O)CC1CC(F)(F)C1)C(=O)N[C@H](Cc1ccccc1)C(=O)C(=O)NCc1nccs1 [3x] | 0.507 | 100 | 91.1 | 71.5 | 50.5 | 34.3 | 26.5 | 57.2 | 2390 ± 645 | 2360 ± 639 | 1350 ± 116 | 0.08 | 7.3 ± 1.9 | 5.09 ± 0.57 | 11200 ± 364 | 10800 ± 124 | 806 ± 75.4 | 2 | 45.8 ± 0.52 | 4.67 ± 1.04 | CC50 (in vitro [2]; [5]): > 500 µM; CC50 (in vitro [2]; human, BEAS-2B, MTT, 72 h): > 500 µM; CC50 (in vitro [2]; human, HUVEC, MTT, 72 h): > 500 µM; MTRlast ([3]; i.v. (1 mg/kg)): 3.18 ± 0.53 h; Vzobs ([3]; i.v. (1 mg/kg)): 3.28 ± 1.17 L/kg; MTRlast ([3]; p.o. (10 mg/kg)): 6.47 ± 0.50 h |
| O=C(c1ccc(F)cc1)C1CCN(CCn2c(=O)[nH]c3ccccc3c2=O)CC1 [Ketanserin, reference compound] | 0.373 | – | 86.9 | 62.2 | 38.1 | 24.4 | 15.9 | 77.6 | – | – | – | – | – | – | – | – | – | – | – | – | – |
| CC(C)(C)[C@H](NC(=O)C(F)(F)F)C(=O)N1C[C@H]2[C@@H]([C@H]1C(=O)N[C@H](C#N)C[C@@H]1CCNC1=O)C2(C)C [Nirmatrelvir, reference compound] | 0.407 | 100 | 86.5 | 60 | 38.7 | 26 | 18.6 | 71.2 | – | – | – | – | – | – | – | – | – | – | – | – | EC50 (SARS-CoV-1): 7.66 µM; EC50 (SARS-CoV-2 (BA.5)): 5.05 µM; EC50 (SARS-CoV-2 (BA.2)): 1.08 µM; EC50 (SARS-CoV-2 (B.1.1.7)): 49.4 µM; EC50 (SARS-CoV-2 (B.1.351)): 28.8 µM; EC50 (MERS-CoV): 11.3 µM |
| CC(=O)CC(c1ccccc1)c1c(O)c2ccccc2oc1=O (centres unmarked) [Warfarin, reference compound] | – | – | – | – | – | – | – | – | – | – | – | – | – | – | – | – | – | – | – | – | fraction unbound (in vitro [4]): 0.009 |
